Results: patent publication US20240043404A1 (AbbVie Inc., priority 2009, published 2024)

System: RS4;11 cells
Assay: RS4;11 cell viability assay (CellTiter Glo);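 also: acute lymphoblastic leukemia line RS4,11, EC50 derived from percentage of viable cells after treatment relative to untreated controls, cell killing taken as a measure of Bcl-2 inhibition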
Type: cell-based, human
Settings: Homo sapiens, RS4-11, 48 h, 50,000 cells per well, 10% human serum, 48 hours; read-out: RS4; 11 EC50 Values
Method: The acute lymphoblastic leukemia (ALL) cell line RS4;11 was used as the primary human cell line to assess the cellular activity of Bcl-2 selective agents in vitro and their efficacy in vivo.
Cell cytotoxicity EC50 values were assessed using CellTiter Glo (Promega) according to the manufacturer's recommendations. The EC50 values were determined as a percentage of viable cells following treatment compared to the untreated control cells.

SMILES | EC50 [nM]
CC1(C)CCC(CN2CCN(c3ccc(C(=O)NS(=O)(=O)c4ccc(NCCCN5CCCC5)c([N+](=O)[O-])c4)c(Oc4cccc5[nH]c6ccccc6c45)c3)CC2)=C(c2ccc(Cl)cc2)C1 [Example 8, 2-(9H-carbazol-4-yloxy)-4-(4-{[2-(4-chlorophenyl)-4,4-dimethylcyclohex-1-en-1-yl]methyl}piperazin-1-yl)-N-({3-nitro-4-[(3-pyrrolidin-1-ylpropyl)amino]phenyl}sulfonyl)benzamide] | 158
CCN(C)C(=O)N1CCO[C@H](COc2ncc(S(=O)(=O)NC(=O)c3ccc(N4CCN(CC5=C(c6ccc(Cl)cc6)CC(C)(C)CC5)CC4)cc3Oc3cnc4[nH]ccc4c3)cc2Cl)C1 [Example 334, (2S)-2-{[(3-chloro-5-{[4-(4-{[2-(4-chlorophenyl)-4,4-dimethylcyclohex-1-en-1-yl]methyl}piperazin-1-yl)-2-(1H-pyrrolo[2,3-b]pyridin-5-yloxy)benzoyl]sulfamoyl}pyridin-2-yl)oxy]methyl}-N-ethyl-N-methylmorpholine-4-carboxamide] | > 1000
COCCOCCN1CC[C@@H](Nc2ccc(S(=O)(=O)NC(=O)c3ccc(N4CCN(CC5=C(c6ccc(Cl)cc6)CC(C)(C)CC5)CC4)cc3Oc3cnc4[nH]ccc4c3)cc2[N+](=O)[O-])C1 [Example 254, 4-(4-{[2-(4-chlorophenyl)-4,4-dimethylcyclohex-1-en-1-yl]methyl}piperazin-1-yl)-N-{[4-({(3R)-1-[2-(2-methoxyethoxy)ethyl]pyrrolidin-3-yl}amino)-3-nitrophenyl]sulfonyl}-2-(1H-pyrrolo[2,3-b]pyridin-5-yloxy)benzamide] | 19.9
CC1(C)CCC(CN2CCN(c3ccc(C(=O)NS(=O)(=O)c4ccc(OCC5CCOCC5)c(C#N)c4)c(Oc4cnc5[nH]ccc5c4)c3)CC2)=C(c2ccc(Cl)cc2)C1 [Example 284, 4-(4-{[2-(4-chlorophenyl)-4,4-dimethylcyclohex-1-en-1-yl]methyl}piperazin-1-yl)-N-{[3-cyano-4-(tetrahydro-2H-pyran-4-ylmethoxy)phenyl]sulfonyl}-2-(1H-pyrrolo[2,3-b]pyridin-5-yloxy)benzamide] | 162
CC1(C)CCC(CN2CCN(c3ccc(C(=O)NS(=O)(=O)c4ccc(NC5CCN(C6CC6)CC5)c(S(=O)(=O)C(F)(F)F)c4)c(Oc4cnc5[nH]ccc5c4)c3)CC2)=C(c2ccc(Cl)cc2)C1 [Example 190, 4-(4-{[2-(4-chlorophenyl)-4,4-dimethylcyclohex-1-en-1-yl]methyl}piperazin-1-yl)-N-({4-[(1-cyclopropylpiperidin-4-yl)amino]-3-[(trifluoromethyl)sulfonyl]phenyl}sulfonyl)-2-(1H-pyrrolo[2,3-b]pyridin-5-yloxy)benzamide] | 551
CC1(C)CCC(CN2CCN(c3ccc(C(=O)NS(=O)(=O)c4cnc(OCC5(F)CCOCC5)c(Cl)c4)c(Oc4cnc5[nH]ccc5c4)c3)CC2)=C(c2ccc(Cl)cc2)C1 [Example 96, N-({5-chloro-6-[(4-fluorotetrahydro-2H-pyran-4-yl)methoxy]pyridin-3-yl}sulfonyl)-4-(4-{[2-(4-chlorophenyl)-4,4-dimethylcyclohex-1-en-1-yl]methyl}piperazin-1-yl)-2-(1H-pyrrolo[2,3-b]pyridin-5-yloxy)benzamide] | 43.6
CC1(C)CCC(CN2CCN(c3ccc(C(=O)NS(=O)(=O)c4ccc5ccccc5c4)c(Oc4cnc5[nH]ccc5c4)c3)CC2)=C(c2ccc(Cl)cc2)C1 [Example 14, 4-(4-{[2-(4-chlorophenyl)-4,4-dimethylcyclohex-1-en-1-yl]methyl}piperazin-1-yl)-N-(2-naphthylsulfonyl)-2-(1H-pyrrolo[2,3-b]pyridin-5-yloxy)benzamide] | 3890
CC1(C)CCC(CN2CCN(c3ccc(C(=O)NS(=O)(=O)c4ccc(OC[C@H]5CC[C@H](O)CC5)c(Cl)c4)c(Oc4cnc5[nH]ccc5c4)c3)CC2)=C(c2ccc(Cl)cc2)C1 [Example 305, N-({3-chloro-4-[(trans-4-hydroxycyclohexyl)methoxy]phenyl}sulfonyl)-4-(4-{[2-(4-chlorophenyl)-4,4-dimethylcyclohex-1-en-1-yl]methyl}piperazin-1-yl)-2-(1H-pyrrolo[2,3-b]pyridin-5-yloxy)benzamide] | 32.5

Continued, values first:

EC50 [nM] | SMILES
76.3 | CC1(C)CCC(CN2CCN(c3ccc(C(=O)NS(=O)(=O)c4ccc(NCC5COCCN5C5CCOCC5)c([N+](=O)[O-])c4)c(Oc4cnc5[nH]ccc5c4)c3)CC2)=C(c2ccc(Cl)cc2)C1 (stereo not shown) [Example 169, 4-(4-{[2-(4-chlorophenyl)-4,4-dimethylcyclohex-1-en-1-yl]methyl}piperazin-1-yl)-N-[(3-nitro-4-{[(4-tetrahydro-2H-pyran-4-ylmorpholin-3-yl)methyl]amino}phenyl)sulfonyl]-2-(1H-pyrrolo[2,3-b]pyridin-5-yloxy)benzamide]
52.9 | CC1(C)C=CC(c2ccc(Cl)cc2)=C(CN2CCN(c3ccc(C(=O)NS(=O)(=O)c4ccc(NCC5CCOCC5)c([N+](=O)[O-])c4)c(Oc4cnc5[nH]ccc5c4)c3)CC2)C1 [Example 206, 4-(4-{[2-(4-chlorophenyl)-5,5-dimethylcyclohexa-1,3-dien-1-yl]methyl}piperazin-1-yl)-N-({3-nitro-4-[(tetrahydro-2H-pyran-4-ylmethyl)amino]phenyl}sulfonyl)-2-(1H-pyrrolo[2,3-b]pyridin-5-yloxy)benzamide]
4.38 | CC1(C)CCC(CN2CCN(c3ccc(C(=O)NS(=O)(=O)c4ccc(NCC5CN(CC#N)CCO5)c([N+](=O)[O-])c4)c(Oc4cnc5[nH]ccc5c4)c3)CC2)=C(c2ccc(Cl)cc2)C1 (stereo not shown) [Example 214, 4-(4-{[2-(4-chlorophenyl)-4,4-dimethylcyclohex-1-en-1-yl]methyl}piperazin-1-yl)-N-{[4-({[4-(cyanomethyl)morpholin-2-yl]methyl}amino)-3-nitrophenyl]sulfonyl}-2-(1H-pyrrolo[2,3-b]pyridin-5-yloxy)benzamide]
9.88 | O=C(NS(=O)(=O)c1ccc(NCC2CCOCC2)c([N+](=O)[O-])c1)c1ccc(N2CCN(CC3=C(c4ccc(Cl)cc4)CC4(CC3)CC4)CC2)cc1Oc1cnc2[nH]ccc2c1 [Example 328, 4-(4-{[5-(4-chlorophenyl)spiro[2.5]oct-5-en-6-yl]methyl}piperazin-1-yl)-N-({3-nitro-4-[(tetrahydro-2H-pyran-4-ylmethyl)amino]phenyl}sulfonyl)-2-(1H-pyrrolo[2,3-b]pyridin-5-yloxy)benzamide]
28.5 | CC1(C)CCC(CN2CCN(c3ccc(C(=O)NS(=O)(=O)c4ccc(NC5CN(C6CCOCC6)C5)c([N+](=O)[O-])c4)c(Oc4cnc5[nH]ccc5c4)c3)CC2)=C(c2ccc(Cl)cc2)C1 [Example 116, 4-(4-{[2-(4-chlorophenyl)-4,4-dimethylcyclohex-1-en-1-yl]methyl}piperazin-1-yl)-N-({3-nitro-4-[(1-tetrahydro-2H-pyran-4-ylazetidin-3-yl)amino]phenyl}sulfonyl)-2-(1H-pyrrolo[2,3-b]pyridin-5-yloxy)benzamide]
4.5 | CC1(C)CCC(CN2CCN(c3ccc(C(=O)NS(=O)(=O)c4ccc(NC[C@@H]5CCN(C6COC6)C5)c([N+](=O)[O-])c4)c(Oc4cnc5[nH]ccc5c4)c3)CC2)=C(c2ccc(Cl)cc2)C1 [Example 209, 4-(4-{[2-(4-chlorophenyl)-4,4-dimethylcyclohex-1-en-1-yl]methyl}piperazin-1-yl)-N-{[3-nitro-4-({[(3S)-1-oxetan-3-ylpyrrolidin-3-yl]methyl}amino)phenyl]sulfonyl}-2-(1H-pyrrolo[2,3-b]pyridin-5-yloxy)benzamide]
7.51 | CO[C@H]1CC[C@@H](CNc2ccc(S(=O)(=O)NC(=O)c3ccc(N4CCN(CC5=C(c6ccc(Cl)cc6)CC(C)(C)OC5)CC4)cc3Oc3cnc4[nH]ccc4c3)cc2[N+](=O)[O-])CC1 [Example 72, Cis-4-(4-{[4-(4-chlorophenyl)-6,6-dimethyl-5,6-dihydro-2H-pyran-3-yl]methyl}piperazin-1-yl)-N-[(4-{[(4-methoxycyclohexyl)methyl]amino}-3-nitrophenyl)sulfonyl]-2-(1H-pyrrolo[2,3-b]pyridin-5-yloxy)benzamide]
15.7 | CC1(C)CC(c2ccc(Cl)cc2)=C(CN2CCN(c3ccc(C(=O)NS(=O)(=O)c4ccc(NCC5COCCO5)c([N+](=O)[O-])c4)c(Oc4cnc5[nH]ccc5c4)c3)CC2)CO1 (stereo not shown) [Example 31, 4-(4-{[4-(4-chlorophenyl)-6,6-dimethyl-5,6-dihydro-2H-pyran-3-yl]methyl}piperazin-1-yl)-N-({4-[(1,4-dioxan-2-ylmethyl)amino]-3-nitrophenyl}sulfonyl)-2-(1H-pyrrolo[2,3-b]pyridin-5-yloxy)benzamide]
12.8 | CC1(C)CCC(CN2CCN(c3ccc(C(=O)NS(=O)(=O)c4ccc(NC5CCN(C6CCC6)CC5)c([N+](=O)[O-])c4)c(Oc4cnc5[nH]ccc5c4)c3)CC2)=C(c2ccc(Cl)cc2)C1 [Example 140, 4-(4-{[2-(4-chlorophenyl)-4,4-dimethylcyclohex-1-en-1-yl]methyl}piperazin-1-yl)-N-({4-[(1-cyclobutylpiperidin-4-yl)amino]-3-nitrophenyl}sulfonyl)-2-(1H-pyrrolo[2,3-b]pyridin-5-yloxy)benzamide]
15.1 | CC1(C)CCC(c2ccc(Cl)cc2)=C(CN2CCN(c3ccc(C(=O)NS(=O)(=O)c4ccc(NCC5CCOCC5)c([N+](=O)[O-])c4)c(Oc4cnc5[nH]ccc5c4)c3)CC2)C1 [Example 75, 4-(4-{[2-(4-chlorophenyl)-5,5-dimethylcyclohex-1-en-1-yl]methyl}piperazin-1-yl)-N-({3-nitro-4-[(tetrahydro-2H-pyran-4-ylmethyl)amino]phenyl}sulfonyl)-2-(1H-pyrrolo[2,3-b]pyridin-5-yloxy)benzamide]
22.1 | CC1(C)CCC(CN2CCN(c3ccc(C(=O)NS(=O)(=O)c4ccc(N[C@H]5CCN(C6CCOCC6)C5)c([N+](=O)[O-])c4)c(Oc4cnc5[nH]ccc5c4)c3)CC2)=C(c2ccc(Cl)cc2)C1 [Example 132, 4-(4-{[2-(4-chlorophenyl)-4,4-dimethylcyclohex-1-en-1-yl]methyl}piperazin-1-yl)-N-[(3-nitro-4-{[(3S)-1-tetrahydro-2H-pyran-4-ylpyrrolidin-3-yl]amino}phenyl)sulfonyl]-2-(1H-pyrrolo[2,3-b]pyridin-5-yloxy)benzamide]
